Measured values published in patent US8568987B2, “Chemotaxis diagnostic” (Glycotope Biotechnology GmbH, priority 2000, dated 2013).

Columns and labels:
[1] = tested on: neutrophilic granulocytes (LECAM-1 surface expression); assay: Granulocyte chemotaxis test from leukocyte-rich plasma: LECAM-1 surface expression by flow-through cytometry; assay type: cell-based, human; settings: 5×10^−8 M fMLP vs negative control containing PBS; FIG. 3A/3B
Description: (§1) 1 ml of Ficoll (Ficoll separation medium, from Seromed, order No. L6113 (endotoxin-low)) is initially introduced in an Eppendorf tube and 1 ml of fresh (preferably not older than 8 hours) heparinized whole blood (endotoxin-low heparin) is carefully overlaid at room temperature. The mixture is allowed to stand at room temperature until a marked phase separation can be observed. After a spontaneous sedimentation, normally lasting for about 40 minutes at room temperature, the leukocytes and platelets remain above the Ficoll phase while the erythrocytes have sedimented to the bottom. The sinking of the erythrocytes occurs quite suddenly after from approx. 30 to 40 minutes. […]
(§2) 20 μl of LDS (laser dye LDS 751, from Exiton or Styryl 8, from Lambda Physik, Göttingen; for excluding the erythrocytes, 1 mg/ml, prediluted 1:50 in PBS) are added to the solution. […] The measurement is stopped after in each case 1000 or 2000 latex particles have been recorded, such that approx. 5000-15 000 neutrophils have been counted. […] The sheath fluid employed is FACS Flow (from Becton Dickinson, order No. 342003) or another carrier fluid having a low intrinsic fluorescence. […] The calibration and quality control for fluorescence measurements (intensity per cell) are carried out using the Calibrites. […]

[2] = tested on: neutrophilic granulocytes; assay: Granulocyte chemotaxis test: number of cells migrated through porous membrane, counted against beads by flow-through cytometry; assay type: cell-based, human; settings: 5×10^−8 M fMLP vs negative control containing PBS; FIG. 3B
Description: as §1, §2

N-formyl-Met-Leu-Phe [fMLP]
decrease in the surface expression of the cell adhesion molecule LECAM-1 [1]: about one order of magnitude | number of neutrophilic granulocyte cells which have migrated through the membrane, in relation to constant number of beads [2]: marked increase
